Data published in patent US11180474B2 (BRISTOL-MYERS SQUIBB COMPANY, priority 2016, dated 2021).

How the values were obtained:
human TLR7 = target: T1, human TLR7 (Homo sapiens, UniProt Q9NYK1); experiment: TLR7 inhibition reporter assay (HEK-Blue cells, SEAP reporter, gardiquimod stimulation); format: cell-based; details: HEK-Blue cells overexpressing human TLR7, gardiquimod 7.5 μM
T1 construct: host or cells: HEK-Blue cells
T1 sequence (Q9NYK1 27-1049): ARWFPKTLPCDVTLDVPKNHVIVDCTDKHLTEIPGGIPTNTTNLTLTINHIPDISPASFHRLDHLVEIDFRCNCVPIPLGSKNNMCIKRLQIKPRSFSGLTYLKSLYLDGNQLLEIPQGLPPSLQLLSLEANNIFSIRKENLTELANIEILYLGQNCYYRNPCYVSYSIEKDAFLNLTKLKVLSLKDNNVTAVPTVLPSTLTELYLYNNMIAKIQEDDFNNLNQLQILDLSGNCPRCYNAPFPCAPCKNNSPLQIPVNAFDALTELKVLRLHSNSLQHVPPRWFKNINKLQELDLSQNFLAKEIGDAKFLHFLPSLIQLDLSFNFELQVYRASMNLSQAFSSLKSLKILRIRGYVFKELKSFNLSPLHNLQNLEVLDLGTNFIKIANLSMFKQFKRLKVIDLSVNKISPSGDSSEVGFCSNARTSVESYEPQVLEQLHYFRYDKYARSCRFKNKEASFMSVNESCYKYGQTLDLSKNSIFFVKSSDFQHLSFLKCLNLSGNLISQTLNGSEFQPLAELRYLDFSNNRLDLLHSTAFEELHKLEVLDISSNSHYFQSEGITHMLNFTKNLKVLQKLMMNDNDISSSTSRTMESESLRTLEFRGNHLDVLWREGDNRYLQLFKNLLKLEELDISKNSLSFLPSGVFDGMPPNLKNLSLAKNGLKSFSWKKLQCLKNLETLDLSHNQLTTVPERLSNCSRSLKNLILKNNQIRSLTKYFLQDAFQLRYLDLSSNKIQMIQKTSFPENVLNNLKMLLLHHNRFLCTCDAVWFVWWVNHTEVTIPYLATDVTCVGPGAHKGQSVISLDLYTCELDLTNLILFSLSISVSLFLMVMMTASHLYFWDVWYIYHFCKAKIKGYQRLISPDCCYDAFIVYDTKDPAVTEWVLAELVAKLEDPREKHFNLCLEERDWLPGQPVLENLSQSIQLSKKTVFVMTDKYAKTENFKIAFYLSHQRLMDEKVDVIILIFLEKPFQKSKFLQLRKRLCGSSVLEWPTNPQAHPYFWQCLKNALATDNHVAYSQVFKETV
In short: (§1)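 22 h, 37° C, 5% CO2 incubation; compounds 0.05 nM-50 μM final; TLR7 cells 15000/well, TLR8 20,000/well. Readout: SEAP via HEK-Blue Detection medium. % inhibition = signal reduction versus agonist + DMSO wells, referenced to known inhibitor.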

human TLR8 = target: T2, human TLR8 (Homo sapiens, UniProt Q9NR97); experiment: TLR8 inhibition reporter assay (HEK-Blue cells, SEAP reporter, R848 stimulation); format: cell-based; details: HEK-Blue cells overexpressing human TLR8, R848 15.9 μM
T2 construct: host or cells: HEK-Blue cells
T2 sequence (Q9NR97 27-1041): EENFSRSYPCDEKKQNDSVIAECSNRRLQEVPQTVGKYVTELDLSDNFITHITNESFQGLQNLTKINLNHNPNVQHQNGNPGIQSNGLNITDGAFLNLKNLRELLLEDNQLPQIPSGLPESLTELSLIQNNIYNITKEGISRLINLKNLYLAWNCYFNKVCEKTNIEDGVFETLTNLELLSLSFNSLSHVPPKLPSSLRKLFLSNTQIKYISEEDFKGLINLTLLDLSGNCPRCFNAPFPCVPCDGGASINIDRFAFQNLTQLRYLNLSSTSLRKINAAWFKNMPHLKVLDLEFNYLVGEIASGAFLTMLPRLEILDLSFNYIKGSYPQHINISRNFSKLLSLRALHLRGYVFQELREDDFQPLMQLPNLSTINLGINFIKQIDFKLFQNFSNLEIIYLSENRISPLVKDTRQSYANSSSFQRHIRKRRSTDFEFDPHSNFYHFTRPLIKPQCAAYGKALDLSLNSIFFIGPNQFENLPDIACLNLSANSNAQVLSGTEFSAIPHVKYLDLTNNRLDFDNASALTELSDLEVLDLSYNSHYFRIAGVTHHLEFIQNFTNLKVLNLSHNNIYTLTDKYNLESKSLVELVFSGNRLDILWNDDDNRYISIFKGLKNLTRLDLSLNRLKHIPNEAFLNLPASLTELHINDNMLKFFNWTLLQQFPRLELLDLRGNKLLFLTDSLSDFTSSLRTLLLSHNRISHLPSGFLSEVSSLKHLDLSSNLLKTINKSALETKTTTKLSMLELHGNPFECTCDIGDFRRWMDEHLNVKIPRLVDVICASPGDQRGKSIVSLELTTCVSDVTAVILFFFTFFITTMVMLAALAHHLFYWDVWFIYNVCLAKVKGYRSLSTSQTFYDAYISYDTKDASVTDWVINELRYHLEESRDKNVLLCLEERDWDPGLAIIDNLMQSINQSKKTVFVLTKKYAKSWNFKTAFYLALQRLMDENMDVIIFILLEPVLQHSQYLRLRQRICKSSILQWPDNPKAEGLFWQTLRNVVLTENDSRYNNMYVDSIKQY
In short: as §1

SMILES | IC50 (human TLR7) [nM] | IC50 (human TLR8) [nM]
COc1ccc(-c2[nH]c3ccc(C4CCN(Cc5nccn5C)CC4)cc3c2C(C)C)cc1OC [Example 262, 2-(3,4-dimethoxyphenyl)-3-isopropyl-5-(1-((1-methyl-1H-imidazol-2-yl)methyl)piperidin-4-yl)-1H-indole] | 61 | 23
COc1ccc(-c2[nH]c3ccc(C4CCN(Cc5cnc(C)[nH]5)CC4)cc3c2C(C)C)cc1OC [Example 266, 2-(3,4-dimethoxyphenyl)-3-isopropyl-5-(1-((2-methyl-1H-imidazol-5-yl)methyl)piperidin-4-yl)-1H-indole] | 48 | 20
COc1ccc(-c2[nH]c3ccc(C4CCN(Cc5cnc[nH]5)CC4)cc3c2C(C)C)cc1OC [Example 268, 5-(1-((1H-imidazol-5-yl)methyl)piperidin-4-yl)-2-(3,4-dimethoxyphenyl)-3-isopropyl-1H-indole] | 31 | 15
CCN(CC)C(=O)C1CCCN(C(=O)CN2CCC(c3ccc4[nH]c(-c5ccc(OC)c(OC)c5)c(C(C)C)c4c3)CC2)C1 (stereo not drawn) [Example 272, 1-(2-(4-(2-(3,4-dimethoxyphenyl)-3-isopropyl-1H-indol-5-yl)piperidin-1-yl)acetyl)-N,N-diethylpiperidine-3-carboxamide] | 83 | 37
COc1ccc(-c2[nH]c3ccc(C4CCN(CC(=O)N5CCN(C)CC5)CC4)cc3c2C(C)C)cc1OC [Example 274, 2-(4-(2-(3,4-dimethoxyphenyl)-3-isopropyl-1H-indol-5-yl)piperidin-1-yl)-1-(4-methylpiperazin-1-yl) ethan-1-one] | 68 | 228
COc1ccc(-c2[nH]c3ccc(C4CCN(CC(=O)N[C@H]5CC[C@H](C(C)(C)O)CC5)CC4)cc3c2C(C)C)cc1OC [Example 279, 2-(4-(2-(3,4-dimethoxyphenyl)-3-isopropyl-1H-indol-5-yl)piperidin-1-yl)-N-((1r,4r)-4-(2-hydroxypropan-2-yl)cyclohexyl)acetamide] | 495 | 1160
COc1ccc(-c2[nH]c3ccc(C4CCN(C(=O)CN5CCC[C@H](C(=O)N6CCN(C(C)=O)CC6)C5)CC4)cc3c2C(C)C)cc1OC [Example 284, (S)-2-(3-(4-acetylpiperazine-1-carbonyl)piperidin-1-yl)-1-(4-(2-(3,4-dimethoxyphenyl)-3-isopropyl-1H-indol-5-yl)piperidin-1-yl)ethan-1-one] | 39 | 25
COc1ccc(-c2[nH]c3ccc(C4CCN(C(=O)CN5CCC[C@H](C(=O)NC(C)C)C5)CC4)cc3c2C(C)C)cc1OC [Example 285, (S)-1-(2-(4-(2-(3,4-dimethoxyphenyl)-3-isopropyl-1H-indol-5-yl)piperidin-1-yl)-2-oxoethyl)-N-isopropylpiperidine-3-carboxamide] | 55 | 37
COc1ccc(-c2[nH]c3ccc(C4CCN(C(=O)CN5CCC[C@H](C(=O)N6CCCC6)C5)CC4)cc3c2C(C)C)cc1OC [Example 287, (S)-1-(4-(2-(3,4-dimethoxyphenyl)-3-isopropyl-1H-indol-5-yl)piperidin-1-yl)-2-(3-(pyrrolidine-1-carbonyl)piperidin-1-yl)ethan-1-one] | 38 | 33
COc1ccc(-c2[nH]c3ccc(C4CCN(C(=O)CN5CCC[C@H](C(=O)N(C)C(C)C)C5)CC4)cc3c2C(C)C)cc1OC [Example 288, (S)-1-(2-(4-(2-(3,4-dimethoxyphenyl)-3-isopropyl-1H-indol-5-yl)piperidin-1-yl)-2-oxoethyl)-N-isopropyl-N-methylpiperidine-3-carboxamide] | 44 | 32
COc1ccc(-c2[nH]c3ccc(C4CCN(C(=O)CN5CCC[C@H](C(=O)N6CCN(c7cccc(C(F)(F)F)c7)CC6)C5)CC4)cc3c2C(C)C)cc1OC [Example 290, (S)-1-(4-(2-(3,4-dimethoxyphenyl)-3-isopropyl-1H-indol-5-yl)piperidin-1-yl)-2-(3-(4-(3-(trifluoromethyl)phenyl)piperazine-1-carbonyl)piperidin-1-yl)ethan-1-one] | 1740 | 803

These reach a lower IC50 (human TLR7). Values come first.

IC50 (human TLR7) [nM] | IC50 (human TLR8) [nM] | SMILES
7 | 29 | COc1ccc(-c2[nH]c3ccc(C4CCN(CC(=O)NC5CCN(C(C)C)CC5)CC4)cc3c2C(C)C)cc1OC [Example 273, 2-(4-(2-(3,4-dimethoxyphenyl)-3-isopropyl-1H-indol-5-yl)piperidin-1-yl)-N-(1-isopropylpiperidin-4-yl)acetamide]
17 | 22 | COc1ccc(-c2[nH]c3ccc(C4CCN(CC(=O)N5CCCC(CO)C5)CC4)cc3c2C(C)C)cc1OC (stereo not drawn) [Example 275, 2-(4-(2-(3,4-dimethoxyphenyl)-3-isopropyl-1H-indol-5-yl)piperidin-1-yl)-1-(3-(hydroxymethyl)piperidin-1-yl)ethan-1-one]
17 | 27 | COc1ccc(-c2[nH]c3ccc(C4CCN(CC(=O)NCCO)CC4)cc3c2C(C)C)cc1OC [Example 276, 2-(4-(2-(3,4-dimethoxyphenyl)-3-isopropyl-1H-indol-5-yl)piperidin-1-yl)-N-(2-hydroxyethyl) acetamide]
16 | 37 | COc1ccc(-c2[nH]c3ccc(C4CCN(CC(=O)NCCCO)CC4)cc3c2C(C)C)cc1OC [Example 277, 2-(4-(2-(3,4-dimethoxyphenyl)-3-isopropyl-1H-indol-5-yl)piperidin-1-yl)-N-(3-hydroxypropyl)acetamide]
8 | 11 | COc1ccc(-c2[nH]c3ccc(C4CCN(CC(=O)N5CC[C@H](O)C5)CC4)cc3c2C(C)C)cc1OC [Example 278, (S)-2-(4-(2-(3,4-dimethoxyphenyl)-3-isopropyl-1H-indol-5-yl)piperidin-1-yl)-1-(3-hydroxypyrrolidin-1-yl)ethan-1-one]
5 | 17 | COc1ccc(-c2[nH]c3ccc(C4CCN(C(=O)CN5CCC[C@H](C(=O)N6CCN(C(C)C)CC6)C5)CC4)cc3c2C(C)C)cc1OC [Example 286, (S)-1-(4-(2-(3,4-dimethoxyphenyl)-3-isopropyl-1H-indol-5-yl)piperidin-1-yl)-2-(3-(4-isopropylpiperazine-1-carbonyl)piperidin-1-yl)ethan-1-one]
13 | 14 | COc1ccc(-c2[nH]c3ccc(C4CCN(C(=O)CN5CCC[C@H](C(=O)N6CCC(N(C)C)CC6)C5)CC4)cc3c2C(C)C)cc1OC [Example 289, (S)-1-(4-(2-(3,4-dimethoxyphenyl)-3-isopropyl-1H-indol-5-yl)piperidin-1-yl)-2-(3-(4-(dimethylamino)piperidine-1-carbonyl)piperidin-1-yl)ethan-1-one]
